Read-outs that look alike come from different tables or passages of the source.
Test: Rat 28-day toxicokinetics
Assay type: in vivo
Conditions: plasma, po; for AUC: read-out: AUC within 24 hours post dosing; for half-life: read-out: apparent terminal half-life (converted)
Experimental: In the rat repeated-dose toxicokinetic study, fexinidazole was administered orally by gavage once a day for 28 consecutive days to ten or fifteen Crl:CD (SD)IGS BR rats/sex/group at doses of 50, 200, or 800 mg/kg/day. A control group received the vehicle alone (5% Tween 80/0.5% methocel). Ten animals/sex/group were sacrificed at the end of the treatment period on day 29 or 30 of study. The remaining 5 animals/sex/group in the control and high-dose groups were sacrificed on day 43 at the end of a 2-weeks observation period. Systemic exposure to fexinidazole and its sulfoxide and sulfone metabolites was evaluated in three additional animals/sex/group. Samples were taken at predose, and 30 min, 1, 2, 4, 8 and 24 h after dosing on days 1, 14, and 28, and in addition at 48 and 72 h after treatment on day 28.
Toxicokinetic Report for the study No. 0504-2007
SD Standard deviation of the mean […]
t1/2,z Terminal half-life tmax Time to peak plasma concentration
ULOQ Upper limit of quantification
The study was conducted according to the study protocol and related amendment.
Fexinidazole was orally given by gavage once a day for 28 days to male and female Sprague Dawley rats according to the following scheme
Fexinidazole was suspended with 5% Tween 80 in 0.5% Methyl cellulose 400 cP.
6.2. Sample Collection and Handling
Blood samples (about 0.25 mL/sampling time) were withdrawn from retro-orbital sinus plexus under isofluorane anesthesia and put in heparinized plastic tubes kept on a ice-water bath, then centrifuged for 10 min at 1200g at +4°C and two aliquots of about 50 μL of plasma were stored in a freezer at -80°C until analysis. Blood was taken from three rats/gender/dose on Days 1 and 14 at pre-dose and 0.5, 1, 2, 4, 8 and 24 hours after dosing, on Day 28 at pre-dose and 1, 2, 4, 8, 24, 48 and 72 hours after dosing. After the administration of the vehicle, the samples were taken from three rats/gender at pre-dose and […]
6.3. Bioanalytical Method
Rat plasma concentrations of Fexinidazole and its sulfoxide (M1) and sulfone (M2) metabolites were determined by a validated LC/MS/MS method. The calibration range for the assay was 5-1000 ng/mL for Fexinidazole and 25-25000 ng/mL for M1 and M2.
Study samples containing analytes concentrations above the upper limit of quantitation were diluted with blank matrix prior to analysis.
6.4. Pharmacokinetic Calculations
Pharmacokinetic evaluation was carried out using non-compartmental approach with the aid […]
Excel spreadsheet (Microsoft Inc., Seattle, USA). […]
In the calculations, the undetectable concentrations between detectable ones were ignored.
After each dose level, Cmax and tmax of Fexinidazole and sulfoxide and sulfone metabolites […]
linear trapezoidal rule up to the last detectable concentration. On Day 28, since the blood […]
24 hours post dosing was calculated and denoted AUC0-24. This AUC was calculated in order to compare AUC values on Day 28 to those on Day 1 and Day 14. On Day 28, in addition, the half-life of the terminal phase, t1/2,z, was determined by linear regression analysis of the natural-log concentration vs. time curve, where t1/2,z = ln(2)/slope of the regression line.
Fexinidazole and metabolites accumulation ratios, based on Cmax (RA,Cmax), AUC0-24 (RA,AUC0-24) and AUC0-t(last) (RA,AUC0-t(last)), were calculated as the ratio between the parameters obtained on Day 14 and Day 28 to the corresponding one at Day 1. […]
pharmacokinetic parameters of each compound sorted by dose, gender and day of dosing. […]
compound are reported in Tables 1 and 2, whilst individual and mean parameters of each […]
Individual and mean (±SD, CV%) plasma
2A1 - 19A1 of Appendix 1. Individual plasma concentrations of Fexinidazole and both metabolites are plot in Figures 1 - 9, whilst the mean concentrations are plot in Figures 10 - 15. Mean normalized Cmax and AUC0-t(last) values of Fexinidazole and metabolites vs. dose are plot in Figures 16 - 21.
In-study bioanalytical validation data are reported in Appendix 2. All analytical batches met […]

[1] = Sprague Dawley (Crl:CD (SD)IGS BR), 50 mg/kg/day, Day 28, female
[2] = Sprague Dawley (Crl:CD (SD)IGS BR), 50 mg/kg/day, Day 28, male
[3] = Sprague Dawley (Crl:CD (SD)IGS BR), 200 mg/kg/day, Day 28, female
[4] = Sprague Dawley (Crl:CD (SD)IGS BR), 200 mg/kg/day, Day 28, male
[5] = Sprague Dawley (Crl:CD (SD)IGS BR), 800 mg/kg/day, Day 28, female (n=2)
[6] = Sprague Dawley (Crl:CD (SD)IGS BR), 800 mg/kg/day, Day 28, male
[7] = Sprague-Dawley (Crl:CD (SD)IGS BR), 50 mg/kg/day, 50 mg/kg/day po, day 1
[8] = Sprague-Dawley (Crl:CD (SD)IGS BR), 50 mg/kg/day, 50 mg/kg/day po, day 14
[9] = Sprague-Dawley (Crl:CD (SD)IGS BR), 200 mg/kg/day, 200 mg/kg/day po, day 1
[10] = both sexes, Sprague-Dawley (Crl:CD (SD)IGS BR), 200 mg/kg/day, 200 mg/kg/day po, day 14
[11] = both sexes, Sprague-Dawley (Crl:CD (SD)IGS BR), 800 mg/kg/day, 800 mg/kg/day po, day 1
[12] = both sexes, Sprague-Dawley (Crl:CD (SD)IGS BR), 800 mg/kg/day, 800 mg/kg/day po, day 14

With `Cn1c([N+](=O)[O-])cnc1COc1ccc([S+](C)[O-])cc1` (stereo not drawn) [Fexinidazole sulfoxide] the AUC [1] was 53.8 ± 15.7 µg·h/mL, the half-life [1] was 366 ± 228 min and the AUC [2] was 29.5 ± 8.92 µg·h/mL. For the same molecule, the half-life [2] was 300 ± 120 min, the AUC [3] was 138 ± 14.2 µg·h/mL and the half-life [3] was 486 ± 186 min. It also gave an AUC [4] of 122 ± 29.3 µg·h/mL, a half-life [4] of 378 ± 174 min and an AUC [5] of 292 ± 40.3 µg·h/mL. For the same molecule, the half-life [5] was 516 ± 138 min, the AUC [6] was 130 ± 56.8 µg·h/mL and the half-life [6] was 396 ± 246 min. It also gave a Cmax [7] of 2700 ± 1400 ng/mL, a Tmax [7] of 2.5 ± 1.22 h and an AUC(0-t) (Sprague-Dawley (Crl:CD (SD)IGS BR), 50 mg/kg/day, 50 mg/kg/day po, day 1, read-out: AUC0-t(last)) of 15.4 ± 9.28 µg·h/mL. For the same molecule, the Cmax [8] was 5230 ± 3280 ng/mL, the Tmax [8] was 2.17 ± 0.98 h and the AUC(0-t) (Sprague-Dawley (Crl:CD (SD)IGS BR), 50 mg/kg/day, 50 mg/kg/day po, day 14, read-out: AUC0-t(last)) was 29.8 ± 19.4 µg·h/mL. For the same molecule, the Cmax [9] was 11400 ± 2170 ng/mL, the Tmax [9] was 2.33 ± 0.82 h and the AUC(0-t) (both sexes, Sprague-Dawley (Crl:CD (SD)IGS BR), 200 mg/kg/day, 200 mg/kg/day po, day 1, read-out: AUC0-t(last)) was 85.9 ± 14.1 µg·h/mL. It also gave a Cmax [10] of 15800 ± 3170 ng/mL, a Tmax [10] of 3.33 ± 1.03 h and an AUC(0-t) (both sexes, Sprague-Dawley (Crl:CD (SD)IGS BR), 200 mg/kg/day, 200 mg/kg/day po, day 14, read-out: AUC0-t(last)) of 118 ± 38.9 µg·h/mL. It also gave a Cmax [11] of 31700 ± 3740 ng/mL, a Tmax [11] of 4.67 ± 1.63 h and an AUC(0-t) (both sexes, Sprague-Dawley (Crl:CD (SD)IGS BR), 800 mg/kg/day, 800 mg/kg/day po, day 1, read-out: AUC0-t(last)) of 410 ± 101 µg·h/mL. It also gave a Cmax [12] of 25000 ± 8990 ng/mL, a Tmax [12] of 2.67 ± 1.03 h and an AUC(0-t) (both sexes, Sprague-Dawley (Crl:CD (SD)IGS BR), 800 mg/kg/day, 800 mg/kg/day po, day 14, read-out: AUC0-t(last)) of 277 ± 160 µg·h/mL. For the same molecule, the Cmax (female, Sprague Dawley (Crl:CD (SD)IGS BR), 50 mg/kg, Day 1, female) was 3890 ± 663 ng/mL, the AUC(0-t) (female, Sprague Dawley (Crl:CD (SD)IGS BR), 50 mg/kg, Day 1, female, read-out: AUC0-t(last)) was 23.2 ± 5.33 µg·h/mL and the Cmax (female, Sprague Dawley (Crl:CD (SD)IGS BR), 50 mg/kg/day, Day 28, female) was 11400 ± 6600 ng/mL. For the same molecule, the AUC(0-t) (female, Sprague Dawley (Crl:CD (SD)IGS BR), 50 mg/kg/day, Day 28, female, read-out: AUC0-t(last)) was 78 ± 23.6 µg·h/mL, the Cmax (female, Sprague Dawley (Crl:CD (SD)IGS BR), 200 mg/kg, Day 1, female) was 12800 ± 1130 ng/mL and the AUC(0-t) (female, Sprague Dawley (Crl:CD (SD)IGS BR), 200 mg/kg, Day 1, female, read-out: AUC0-t(last)) was 91.4 ± 19.7 µg·h/mL. It also gave a Cmax (female, Sprague Dawley (Crl:CD (SD)IGS BR), 200 mg/kg/day, Day 28, female) of 22300 ± 1470 ng/mL, an AUC(0-t) (female, Sprague Dawley (Crl:CD (SD)IGS BR), 200 mg/kg/day, Day 28, female, read-out: AUC0-t(last)) of 153 ± 36.9 µg·h/mL and a Cmax (female, Sprague Dawley (Crl:CD (SD)IGS BR), 800 mg/kg, Day 1, female) of 30600 ± 2620 ng/mL. The AUC(0-t) (female, Sprague Dawley (Crl:CD (SD)IGS BR), 800 mg/kg, Day 1, female, read-out: AUC0-t(last)) was 453 ± 84.7 µg·h/mL, the Cmax (female, Sprague Dawley (Crl:CD (SD)IGS BR), 800 mg/kg/day, Day 28, female (n=2)) was 25800 ± 2050 ng/mL and the AUC(0-t) (female, Sprague Dawley (Crl:CD (SD)IGS BR), 800 mg/kg/day, Day 28, female (n=2), read-out: AUC0-t(last)) was 331 ± 57.3 µg·h/mL. It also gave a Cmax (male, Sprague Dawley (Crl:CD (SD)IGS BR), 50 mg/kg, Day 1, male) of 1500 ± 413 ng/mL, an AUC(0-t) (male, Sprague Dawley (Crl:CD (SD)IGS BR), 50 mg/kg, Day 1, male, read-out: AUC0-t(last)) of 7.66 ± 2.38 µg·h/mL and a Cmax (male, Sprague Dawley (Crl:CD (SD)IGS BR), 50 mg/kg/day, Day 28, male) of 4530 ± 664 ng/mL. It also gave an AUC(0-t) (male, Sprague Dawley (Crl:CD (SD)IGS BR), 50 mg/kg/day, Day 28, male, read-out: AUC0-t(last)) of 30.6 ± 10.9 µg·h/mL, a Cmax (male, Sprague Dawley (Crl:CD (SD)IGS BR), 200 mg/kg, Day 1, male) of 9990 ± 2130 ng/mL and an AUC(0-t) (male, Sprague Dawley (Crl:CD (SD)IGS BR), 200 mg/kg, Day 1, male, read-out: AUC0-t(last)) of 80.5 ± 4.31 µg·h/mL. For the same molecule, the Cmax (male, Sprague Dawley (Crl:CD (SD)IGS BR), 200 mg/kg/day, Day 28, male) was 11600 ± 2400 ng/mL, the AUC(0-t) (male, Sprague Dawley (Crl:CD (SD)IGS BR), 200 mg/kg/day, Day 28, male, read-out: AUC0-t(last)) was 138 ± 45 µg·h/mL and the Cmax (male, Sprague Dawley (Crl:CD (SD)IGS BR), 800 mg/kg, Day 1, male) was 32800 ± 4950 ng/mL. For the same molecule, the AUC(0-t) (male, Sprague Dawley (Crl:CD (SD)IGS BR), 800 mg/kg, Day 1, male, read-out: AUC0-t(last)) was 366 ± 113 µg·h/mL, the Cmax (male, Sprague Dawley (Crl:CD (SD)IGS BR), 800 mg/kg/day, Day 28, male) was 16600 ± 2080 ng/mL and the AUC(0-t) (male, Sprague Dawley (Crl:CD (SD)IGS BR), 800 mg/kg/day, Day 28, male, read-out: AUC0-t(last)) was 268 ± 64.1 µg·h/mL.

— paper PMC3006138, “Fexinidazole – A New Oral Nitroimidazole Drug Candidate Entering Clinical Development for the Treatment of Sleeping Sickness” (PLoS Neglected Tropical Diseases, 2010)
